# Reference: US8664289B2, “Dye and coloring photosensitive composition” (Adeka Corporation, priority 2010, dated 2014)
# How the values were obtained:
# Assay type in all cases: physicochemical
# [1] = Evaluation of absorption wavelength property in CHCl3 solution; set-up: ε: unit not given here; conditions: for ε: molar absorption coefficient
# Text: The absorption wavelength properties of Compounds Nos. 1 to 7, 16, 26, 43, 52 to 62, 65, 66, 69, 70 and 94 to 102 and Comparative Compounds Nos. 1 and 2 obtained above were each evaluated in a CHCl3 solution. The results are shown in [Table 5].
# Solubility in PGMEA = conditions: concentration when PGMEA was added dropwise to 0.1 g of the compound under stirring and was dissolved completely
# Method: (§1) That the obtained solid was an intended product was confirmed by ^1H-NMR and IR. Furthermore, the solubility of the obtained compound was measured. The solubility was a concentration when PGMEA was added dropwise to 0.1 g of the compound under stirring and was dissolved completely. The results thereof are shown in [Table 1] to [Table 4].
# as §1, with “added” for “added dropwise”, “while” for “under”, “4]” for “4].”
# [2] = Heat resistance of exposed coating film of coloring alkali-developable photosensitive composition; conditions: for Relative intensity After exposure: coating film after exposure (150 mJ/cm^2), before heating; for λmax: coating film of composition containing the compound, on glass; for Relative intensity 230° C., 30 min: exposed coating film after 230° C.
# Text: 30.33 g of ACA Z250 (manufactured by Daicel Cytec Company Ltd.) and 11.04 g of ARONIX M-450 (manufactured by Toagosei Co., Ltd.) as the component (B), 1.93 g of IRGACURE 907 (manufactured by BASF) as the component (C), 36.60 g of PGMEA and 20.08 g of cyclohexanone as the component (E), as well as 0.01 g of FZ2122 (manufactured by Dow Corning Toray Co., Ltd.) as other component were mixed and stirred until insoluble components were diminished to give Alkali-developable photosensitive composition No. 1.
# 1.90 g of dimethylacetamide was added to 0.10 g of Compound No. 1 obtained above as the component (A) and dissolved under stirring.
# 5.0 g of Alkali-developable photosensitive composition No. 1 obtained in Step 1 and 1.0 g of Dye liquid No. 1 obtained in Step 2 were mixed and stirred to homogeneous to give Coloring alkali-developable photosensitive composition No. 1 of the present invention.
# Coloring alkali-developable photosensitive compositions Nos. 2 to 20 were obtained in a similar manner to that in Example 2-1, except that Compound No. 1 as the component (A) in Step 2 of Example 2-1 was changed to Compound No. 2, 3, 5, 6, 16, 53, 56, 57, 59, 60, 65, 66, 94 or 96 to 101 obtained above.
# Comparative coloring alkali-developable photosensitive compositions Nos. 1 and 2 were obtained in a similar manner to that in Example 2-1, except that Compound No. 1 as the component (A) in Step 2 of Example 2-1 was changed to Comparative Compound No. 1 or 2.
# The coloring alkali-developable photosensitive compositions obtained in Example 2 were each applied to a glass basal plate under a condition of 410 rpm×7 sec and dried (90° C., 90 sec) on a hot plate. The obtained coating film was exposed (150 mJ/cm^2) by using an ultrahigh pressure mercury lamp. The heat resistance of the exposed coating film was investigated under conditions of 180° C.×60 min and 230° C.×30 min. The results are shown in [Table 7].
# Using the coloring alkali-developable photosensitive compositions obtained in Examples 2-2 to 2-20 and Comparative Examples 2-1 and 2-2, heat resistance was investigated in a similar manner to that in Evaluation Example 3. The results are shown in [Table 7].
# [3] = Evaluation of heat resistance by TG-DTA; conditions: temperature at 10% weight loss
# Method: Compounds Nos. 1 to 7, 16, 26, 43, 52 to 62, 65, 66, 69, 70 and 94 to 102 and Comparative Compounds Nos. 1 and 2 obtained above were analyzed by TG-DTA, and the melting points and temperatures at 10% weight loss were measured. The results are shown in [Table 6].
SMILES,λmax [1] [nm],ε [1],Solubility (PGMEA) (Solubility in PGMEA),Relative intensity After exposure [2],λmax [2] [nm],"Relative intensity 230° C., 30 min [2]",10% weight loss [3] [°C]
CCN(CC)c1ccc(/C=C(\C#N)C(=O)OCC(CC)(COC(=O)/C(C#N)=C/c2ccc(N(CC)CC)cc2)COC(=O)/C(C#N)=C/c2ccc(N(CC)CC)cc2)cc1 [Compound No. 57],437,152000,1.0 or less wt %,100,430,99.9,339
CN(CCO)c1ccc(/C=C(\C#N)C(=O)OCCCCCCOC(=O)/C(C#N)=C/c2ccc(N(C)CCO)cc2)cc1 [Compound No. 59],420,89900,1.0 or less wt %,100,431,99.7,295
N#C/C(=C\c1ccc(N2CCOCC2)cc1)C(=O)OCCCCCCCOC(=O)/C(C#N)=C/c1ccc(N2CCOCC2)cc1 [Compound No. 60],405,71700,1.0 or less wt %,100,408,73.8,350
N#C/C(=C\c1ccc(N(c2ccccc2)c2ccccc2)cc1)C(=O)OCCCCCCCOC(=O)/C(C#N)=C/c1ccc(N(c2ccccc2)c2ccccc2)cc1 [Compound No. 65],435,65300,5.3 wt %,100,430,99.3,354
C=C(C)C(=O)OCCN(C)c1ccc(/C=C(\C#N)C(=O)OCCCCCCOC(=O)/C(C#N)=C/c2ccc(N(C)CCOC(=O)C(=C)C)cc2)cc1 [Compound No. 66],419,94100,1.0 or less wt %,100,419,99.2,354
CCN(CC)c1ccc(/C=C(\C#N)C(=O)OCC(C)(COC(=O)/C(C#N)=C/c2ccc(N(CC)CC)cc2)COC(=O)/C(C#N)=C/c2ccc(N(c3ccccc3)c3ccccc3)cc2)cc1 (centres unmarked) [Compound No. 96],437,138000,10.0 wt %,100,433,99.5,347
CCN(CC)c1ccc(/C=C(\C#N)C(=O)OCC(C)(COC(=O)/C(C#N)=C/c2ccc(N3CCOCC3)cc2)COC(=O)/C(C#N)=C/c2ccc(N3CCOCC3)cc2)cc1 [Compound No. 97],417,103000,10.0 wt %,100,417,98.2,334
CN(CCO)c1ccc(/C=C(\C#N)C(=O)OCC(C)(COC(=O)/C(C#N)=C/c2ccc(N(C)CCO)cc2)COC(=O)/C(C#N)=C/c2ccc(N(C)CCO)cc2)cc1 [Compound No. 98],428,119000,1.0 or less wt %,100,431,99.5,288
CCN(CC)c1ccc(/C=C(\C#N)C(=O)OCC(C)(COC(=O)/C(C#N)=C/c2ccc(N(C)CCO)cc2)COC(=O)/C(C#N)=C/c2ccc(N(C)CCO)cc2)cc1 [Compound No. 99],431,130000,1.0 or less wt %,100,433,99.6,320
CCN(CC)c1ccc(/C=C(\C#N)C(=O)OCC(C)(COC(=O)/C(C#N)=C/c2ccc(N(C)CCO)cc2)COC(=O)/C(C#N)=C/c2ccc(N(CC)CC)cc2)cc1 (centres unmarked) [Compound No. 100],434,147000,6.0 wt %,100,436,99.7,330
CC(COC(=O)/C(C#N)=C/c1ccc(N(Cc2ccccc2)Cc2ccccc2)cc1)(COC(=O)/C(C#N)=C/c1ccc(N(Cc2ccccc2)Cc2ccccc2)cc1)COC(=O)/C(C#N)=C/c1ccc(N(Cc2ccccc2)Cc2ccccc2)cc1 [Compound No. 101],425,153000,10.0 wt %,100,426,99.4,336
